Experiment [1] is described as follows: A Cell Based Secondary Assay To Explore Cytotoxicity of Compounds that Sensitize Mycobacterium Tuberculosis to Beta-Lactam Antibiotics. In kind it is functional.
Experiment [2] is described as follows: Luminescence Cell-Based Dose Response to Identify Activators of 5'UTR Stem-Loop Driven Prion Protein mRNA Translation in H4-C Neuroglioblastoma Cells. [Related pubchem assays: 1829 (Project Summary), 1814 (Primary HTS)]. In kind it is functional.
Experiment [3] is described as follows: Luminescence Cell-Based Dose Confirmation HTS to Identify Activators of 5'UTR Stem-Loop Driven Alpha-Synuclein mRNA Translation in H4 Neuroglioblastoma Cells. [Related pubchem assays: 1829 (Project Summary), 1814 (Primary HTS)]. It is filed as functional.
Another experiment concerns H4. Put plainly: Luminescence Cell-Based Dose Response HTS to Identify Activators of 5'UTR Stem-Loop Driven Prion Protein mRNA Translation in H4 Neuroglioblastoma Cells. [Related pubchem assays: 1829 (Project Summary), 1814 (Primary HTS)]. It is filed as functional. The following applies: Homo sapiens.
The nature of experiment [4]: Luminescence Cell-Based Dose Response to Identify Activators of Luciferase Translation or Activity in H4-C Neuroglioblastoma Cells. [Related pubchem assays: 1829 (Project Summary), 1814 (Primary HTS)]. It is filed as functional.
A short description of experiment [5]: Luminescence Cell-Based Dose Confirmation to Identify Activators of 5'UTR Stem-Loop Driven Alpha-Synuclein mRNA Translation in H4 Neuroglioblastoma Cells. [Related pubchem assays: 1829 (Project Summary), 1814 (Primary HTS)]. In kind it is functional.
A further experiment concerns the target T1, Caspase-3 (Homo sapiens, UniProt P42574).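 Note: Dose-response selectivity test against caspase-3 for candidate inhibitors of sentrin-specific proteases (SENPs).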
T1 sequence (P42574 whole entry): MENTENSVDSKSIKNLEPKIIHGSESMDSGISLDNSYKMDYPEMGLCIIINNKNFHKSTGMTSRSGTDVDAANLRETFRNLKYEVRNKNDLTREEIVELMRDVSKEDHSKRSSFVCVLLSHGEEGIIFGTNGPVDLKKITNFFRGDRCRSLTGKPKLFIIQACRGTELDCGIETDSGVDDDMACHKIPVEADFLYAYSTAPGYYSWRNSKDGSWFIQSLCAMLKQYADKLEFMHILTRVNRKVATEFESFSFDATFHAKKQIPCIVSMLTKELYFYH
In kind it is functional.

For experiment [6], the target named is T2, Sentrin-specific protease 7 (Homo sapiens, UniProt Q9BQF6).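 Note: Luminescence-based dose-response confirmation of ultra-high-throughput screening hits, measuring inhibition of SENP7.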
T2 sequence (Q9BQF6 whole entry): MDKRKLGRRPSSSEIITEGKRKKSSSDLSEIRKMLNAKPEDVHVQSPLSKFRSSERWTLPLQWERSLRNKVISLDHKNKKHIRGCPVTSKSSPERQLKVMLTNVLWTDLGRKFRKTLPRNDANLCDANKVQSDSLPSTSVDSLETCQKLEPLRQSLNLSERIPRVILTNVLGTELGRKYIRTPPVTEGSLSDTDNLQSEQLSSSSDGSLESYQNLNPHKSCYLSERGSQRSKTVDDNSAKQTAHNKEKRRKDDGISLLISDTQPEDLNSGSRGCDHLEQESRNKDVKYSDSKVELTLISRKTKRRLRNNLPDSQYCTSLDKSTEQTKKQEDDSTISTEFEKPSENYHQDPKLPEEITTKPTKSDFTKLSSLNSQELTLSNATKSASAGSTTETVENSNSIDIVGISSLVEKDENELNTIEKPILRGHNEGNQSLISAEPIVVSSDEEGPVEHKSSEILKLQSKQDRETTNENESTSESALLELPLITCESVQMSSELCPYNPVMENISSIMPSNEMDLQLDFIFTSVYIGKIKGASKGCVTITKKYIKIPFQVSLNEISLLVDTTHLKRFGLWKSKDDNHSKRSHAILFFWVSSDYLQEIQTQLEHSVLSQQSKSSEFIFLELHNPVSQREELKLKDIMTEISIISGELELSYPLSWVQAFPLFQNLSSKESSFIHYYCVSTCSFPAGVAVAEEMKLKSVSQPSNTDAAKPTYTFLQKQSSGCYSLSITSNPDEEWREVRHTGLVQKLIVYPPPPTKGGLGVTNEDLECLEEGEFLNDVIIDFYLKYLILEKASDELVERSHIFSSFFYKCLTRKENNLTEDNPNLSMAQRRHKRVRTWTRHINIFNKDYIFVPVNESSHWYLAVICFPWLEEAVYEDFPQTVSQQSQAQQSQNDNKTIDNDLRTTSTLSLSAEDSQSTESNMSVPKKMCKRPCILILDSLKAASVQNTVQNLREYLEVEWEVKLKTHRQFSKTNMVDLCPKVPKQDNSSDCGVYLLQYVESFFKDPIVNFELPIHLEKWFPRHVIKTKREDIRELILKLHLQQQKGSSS
In kind it is functional.

In experiment [7] the target is T3, Sentrin-specific protease 6 (Homo sapiens, UniProt Q9GZR1).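 Note: Luminescence-based dose-response confirmatory assay of SENP6 inhibition, following up an ultra-high-throughput screen.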
T3 sequence (Q9GZR1 whole entry): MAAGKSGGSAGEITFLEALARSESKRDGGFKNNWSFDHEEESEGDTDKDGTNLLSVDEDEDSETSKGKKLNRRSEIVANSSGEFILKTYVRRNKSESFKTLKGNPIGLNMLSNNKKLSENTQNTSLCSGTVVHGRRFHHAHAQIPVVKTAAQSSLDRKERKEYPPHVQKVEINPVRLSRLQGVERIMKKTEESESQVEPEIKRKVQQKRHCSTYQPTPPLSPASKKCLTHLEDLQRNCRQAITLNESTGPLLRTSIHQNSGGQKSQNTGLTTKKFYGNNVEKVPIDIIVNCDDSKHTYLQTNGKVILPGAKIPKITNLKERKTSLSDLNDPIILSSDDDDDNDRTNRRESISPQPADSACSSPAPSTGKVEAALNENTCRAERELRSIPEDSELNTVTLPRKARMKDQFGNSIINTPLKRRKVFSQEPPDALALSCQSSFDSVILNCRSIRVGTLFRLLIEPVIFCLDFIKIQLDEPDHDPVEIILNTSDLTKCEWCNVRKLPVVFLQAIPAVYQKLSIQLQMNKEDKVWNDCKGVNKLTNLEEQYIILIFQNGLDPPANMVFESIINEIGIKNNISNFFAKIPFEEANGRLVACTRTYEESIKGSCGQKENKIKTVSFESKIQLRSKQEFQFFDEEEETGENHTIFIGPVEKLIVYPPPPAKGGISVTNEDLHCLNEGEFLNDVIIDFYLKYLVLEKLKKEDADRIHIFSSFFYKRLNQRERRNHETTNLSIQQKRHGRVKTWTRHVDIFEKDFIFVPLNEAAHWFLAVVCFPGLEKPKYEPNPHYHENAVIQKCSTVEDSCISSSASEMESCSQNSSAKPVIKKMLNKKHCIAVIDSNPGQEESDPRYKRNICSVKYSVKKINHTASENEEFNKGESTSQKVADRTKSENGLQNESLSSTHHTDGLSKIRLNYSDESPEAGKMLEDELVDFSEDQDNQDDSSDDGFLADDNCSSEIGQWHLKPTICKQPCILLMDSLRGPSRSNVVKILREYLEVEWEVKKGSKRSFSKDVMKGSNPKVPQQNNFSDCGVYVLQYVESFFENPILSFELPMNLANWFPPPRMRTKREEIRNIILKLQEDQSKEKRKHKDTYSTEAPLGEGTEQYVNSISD
It is filed as functional.

Experiment [8] addresses T4, Sentrin-specific protease 8 (Homo sapiens, UniProt Q96LD8).
T4 sequence (Q96LD8 whole entry): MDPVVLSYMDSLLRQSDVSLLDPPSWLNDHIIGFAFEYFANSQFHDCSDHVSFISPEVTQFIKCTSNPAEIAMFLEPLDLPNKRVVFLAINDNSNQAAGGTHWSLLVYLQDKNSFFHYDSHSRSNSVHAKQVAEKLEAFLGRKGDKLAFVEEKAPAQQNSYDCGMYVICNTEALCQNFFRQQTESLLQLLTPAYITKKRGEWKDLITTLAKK
It is filed as functional.

In experiment [9] the target is T5, Calpain-2 catalytic subunit (Sus scrofa, UniProt P43367).
T5 sequence (P43367 whole entry): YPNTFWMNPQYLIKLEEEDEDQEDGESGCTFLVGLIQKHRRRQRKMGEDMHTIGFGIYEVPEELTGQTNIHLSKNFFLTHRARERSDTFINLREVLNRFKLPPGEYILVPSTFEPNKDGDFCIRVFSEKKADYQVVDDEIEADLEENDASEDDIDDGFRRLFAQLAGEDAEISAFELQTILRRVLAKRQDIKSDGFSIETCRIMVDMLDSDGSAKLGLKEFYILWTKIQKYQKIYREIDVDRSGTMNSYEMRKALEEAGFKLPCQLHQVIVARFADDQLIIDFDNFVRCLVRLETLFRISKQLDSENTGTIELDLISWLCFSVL
The experiment in a line: m-calpain protease blockers, concentration series – biochemical, fluorogenic peptide substrate, dose response (AID 1420). It is filed as functional.

The nature of experiment [10]: viability of uninfected HEp-2 cells – cell-based, HTS, cytotoxicity control for RSV inhibitor project, dose response (AID 2410). It is filed as functional. The settings on record: human respiratory syncytial virus.
A short description of experiment [11]: Trypanosoma cruzi growth suppression in host cells – NIH3T3 host cells, beta-gal luminescence, confirmation (AID 2044).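 Note: intracellular parasites grown in NIH/3T3 mouse fibroblasts as host cells; luminescent beta-galactosidase reporter signal from transgenic T. cruzi replicating inside host cells; inhibitors lower the luminescence signal.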 In kind it is functional, cell-based.
A short description of experiment [12]: NIH3T3 cell viability loss – ATP luminescence, mouse fibroblasts, counter-screen, dose response (AID 2010).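 Note: cells exposed to compound for about 90 hours before reading.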 In kind it is functional, cell-based. A general note: Counterscreens check selectivity or assay interference.
Experiment [13] is described as follows: viability loss in THP-1 monocytes – THP-1 cells, cytotoxicity control for Vif-APOBEC3G degradation inhibitor project, dose response (AID 1117359). It is filed as functional. The settings on record: THP-1.
For a further experiment, the target named is Prothrombin (Homo sapiens, UniProt P00734). The experiment in a line: Thrombin 1536 HTS Dose Response Confirmation. [Related pubchem assays: 1046 (Thrombin 1536 HTS; hits were confirmed in this assay)]. It is filed as functional.
Experiment [14] is described as follows: Luminescence Cell-Based Dose Response HTS to Identify Activators of Luciferase Translation or Activity in H4 […] Cells. [Related pubchem assays: 1829 (Project Summary), 1814 (Primary HTS)]. In kind it is functional.
For a further experiment, the target named is Nonstructural protein 1 (Influenza A virus, UniProt Q194T2). It is filed as functional, Influenza A virus (A/California/07/2009(H1N1)).

The source made the active and inactive calls.

What is called CC50 is the concentration that lowers cell viability or growth by half. The term EC50 denotes the midpoint of the concentration-response curve. The term IC50 denotes the concentration that inhibits the measured activity by half.

Chain of Nonstructural protein 1 (Q194T2 whole entry): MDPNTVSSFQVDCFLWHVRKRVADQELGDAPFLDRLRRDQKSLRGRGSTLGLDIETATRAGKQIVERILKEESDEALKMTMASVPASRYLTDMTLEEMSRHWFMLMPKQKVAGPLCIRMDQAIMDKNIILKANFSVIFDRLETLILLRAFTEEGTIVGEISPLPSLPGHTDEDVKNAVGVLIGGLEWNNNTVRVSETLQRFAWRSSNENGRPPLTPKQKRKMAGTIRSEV

As for `Cc1nc(SCC(=O)NCc2ccco2)c2c3c(sc2n1)CCCC3`, in [1], the CC50 was 19.8 µM (active).

On to `Cc1ccnc(SCc2nc3ccccc3s2)n1`, for which the concentration giving a half-maximal response (EC50) in experiment [2] is 3.21 µM (active); in experiment [3], < 0.1 µM (active); in the experiment on H4 it was 6.54 µM (active); in experiment [4], > 12 µM (not active); in experiment [5] it was > 12 µM (inconclusive).

As for `Cc1cccc(-c2cc3nc4c(c(N5CCOCC5)n3n2)CCCC4)c1`, the EC50 in [2] is 0.734 µM (active); in the experiment with H4, < 0.1 µM (active); in [4] it was 0.514 µM (active); in experiment [5], 0.228 µM (active). Moreover, the IC50 was 12.4 µM (active) at Caspase-3, 12.9 µM (active) in [6], 18.5 µM (active) in experiment [7] and 19.4 µM (active) in experiment [8].

In the case of `CCCCN(C)Cc1cc(=O)oc2cc3c(cc12)CCCC3`, the CC50 in experiment [1] is > 40 µM (active).

`Cc1ccc(NC(=O)c2cc(N3C(=O)C4CCCCC4C3=O)ccc2N2CCOCC2)cc1` (configuration not stated): the IC50 in experiment [9] is listed as 14.9 µM (not active).

With `COc1ccccc1NC(=O)CCn1c(=O)c2cccn2c2ccccc21`, the CC50 in [10] was > 50 µM (active). In addition, the IC50 in the experiment “cells” is 43.8 µM (active).

Turning to `Cc1sc2c(c1C)c(=O)n(-c1ccc(F)cc1)c(=O)n2CC(=O)NCc1ccco1`, the half-maximal inhibitory concentration (IC50) in experiment [9] is given as 25.1 µM (not active).

Regarding `CCn1c(=O)c2cc(C(=O)N(C)c3ccccc3F)sc2c2ccccc21`, the CC50 in experiment [1] and in experiment [13] was > 40 µM (active) in each case. Besides, the EC50 is 1.04 µM (active) in [11] and > 30 µM (not active) in experiment [12].

`Cc1ccc2cc(CN(Cc3ccco3)C(=O)c3ccco3)c3nnnn3c2c1`: the CC50 in experiment [10] was > 50 µM (active). The IC50 in the experiment “cells” is 44.3 µM (active).

Consider `CCC(=O)n1nc(-c2ccccc2)nc1SCC(=O)Nc1ccc(C)cc1`, for which the IC50 at Prothrombin is 1.22 µM (active).

Regarding `Cc1ccc(C)c(N=Nc2nc3ccccc3n2C)c1`, the EC50 in experiment [2] is 0.275 µM (active); in [14] it was 0.139 µM (inconclusive); in the experiment with H4, < 0.1 µM (active); in [4] it was 0.281 µM (active); in [5], 0.393 µM (active). Besides, the IC50 on Nonstructural protein 1 is 14.3 µM (active).

As for `Cc1ccc(Cn2c(SCC(=O)N3CC(=O)Nc4ccccc43)nc3ccccc3c2=O)cc1`, in experiment [10], the CC50 was 40.2 µM (active). Besides, the IC50 in “cells” was 42 µM (active).

As for `COc1ccc(-c2cc(C(=O)NCc3cn(C)nc3C)c3ccccc3n2)cc1OC`, the IC50 in [9] was > 50 µM (not active).

As for `COc1ccccc1-c1ccc(NC2CCCCC2)nn1`, the EC50 was 1.68 µM (active) in experiment [2]; 0.6 µM (active) in experiment [3]; 52.7 µM (active) in experiment [14]; < 0.1 µM (active) with H4; > 12 µM (not active) in [4]; 0.442 µM (active) in experiment [5].

`COc1cccc(NC(=O)c2ccc(NCCCN3CC(C)CC(C)C3)c([N+](=O)[O-])c2)c1` (configuration not stated): in experiment [9], the IC50 is 3.92 µM (not active).

Values taken from ChEMBL document CHEMBL1201862, “PubChem BioAssay data set” (2004).
